Data set [1] in a line: Thermodynamic aqueous solubility of a crystalline solid (Example 33). In kind it is physicochemical. The conditions noted are these: aqueous phosphate buffer, thermodynamic from solid, pH 6.5 buffer, 24 hours at room temperature. As to the method:
General method to measure the thermodynamic aqueous solubility of a crystalline, organic solid.
To make a 0.03 M (30 mM) Phosphate Buffer (25° C.) at pH 7.4, the above recipe was adjusted as follows: 6.72 mL of 1 M potassium phosphate (monobasic) were mixed with 23.28 mL of 1 M potassium phosphate (dibasic) and diluted to one liter with water. The pH was adjusted with HCl or NaOH. Alternatively, 0.9144 g (6.72×10^−3 mol) of potassium phosphate monobasic were mixed with 4.0908 g (23.28×10^−3 mol) of potassium phosphate dibasic and diluted to 1 L with water to get a 30 mM solution of Phosphate Buffer (25° C.).
2. Aqueous phosphate buffer, 30 mM, adjusted to pH 6.5
1. ˜0.5 mg of compound were dissolved in 2.5% DMSO/MeOH (or other organic) to a final concentration of 250 μg/mL stock
• 1. ≥0.5 mg of compound were accurately weighed into a 4-mL vial for each pH to be tested. • 2. The appropriate amount of desired buffer was added to the appropriate vials to get a resulting concentration of 1.02 mg/mL. • 3. Vials were capped and shaken at 350 rpm for 24 hours at room temperature. • 4. ˜450 μL of sample solutions were pipetted from 4-mL vials into 96 DWP. • 5. The plate was centrifuged at 3500 rpm for 10 minutes at 20° C. and 250 μL of supernatant were transferred to catch plate. • 6. […]
4. The model was used to quantify the amount of compound in the aqueous solutions. […]

Data set [2] concerns Cryopreserved human hepatocytes. Put plainly: In vitro metabolic stability in human hepatocytes (Example 34). The data set is classed as in vitro ADME. The settings on record: 1 μM, predicted hepatic extraction ratio. How it is done:
(§1) In vitro metabolic stabilities were studied at a concentration of 1 μM in the presence of liver microsomes and isolated hepatocytes.
(§2) A stock solution of the test compound was prepared at 10 mM (active compound) in DMSO. The in vitro stability of the test compound (1 μM) was assessed in the presence of hepatocytes as follows. Cryopreserved hepatocytes were thawed, isolated from shipping media and diluted to a density of 1×10^6 viable cells/mL, according to the supplier's guidelines, using Dulbecco's Modified Eagle Medium, 1×, high glucose (DMEM, Invitrogen, Carlsbad, Calif.). Viability was determined by trypan blue exclusion using a hemocytometer (3500 Hausser, VWR, West Chester, Pa.). […]
(§3) Data were acquired and peak areas were calculated for test compounds and the internal standard using Analyst 1.6.1 software (Sciex). […]
(§4) All calculations were performed using BioAssay Enterprise. The mean peak area ratios were calculated by averaging the peak area ratios (n=2) of test compound and the internal standard for each sample. Percent remaining was calculated by determining the ratio of the peak area ratio at each time point to the peak area ratio of the time-zero samples. The rate of loss of test compound (km) was determined by linear regression of—1n(f(t)) versus time. […] The t½ was determined dividing 1n(2) by km. […]

The subject of data set [3] is Rat cryopreserved hepatocytes. Put plainly: In vitro metabolic stability in rat hepatocytes (Example 34). The conditions noted are these: 1 μM, predicted hepatic extraction ratio. The data set is classed as in vitro ADME, Sprague Dawley rat. How it is done:
as §1, §2, §3, §4

Another data set deals with T1, hERG (Homo sapiens, UniProt Q12809).
T1 construct: Charles River Laboratories International, Inc. (ChanTest assay service)
Put plainly: hERG ChanTest Fast Patch assay. The data set is classed as cell-based. How it is done: The MDR1 efflux protocol is disclosed in Example 35 hereinbelow. The hERG IC50 values were measured using the ChanTest Fast Patch assay, available from Charles River Laboratories International, Inc. (http://www.criver.com/products-services/drug-discovery/cap abilities/ion-channel/selectivity-profiling).
(In general: hERG is a cardiac potassium channel; its block is linked to QT prolongation.)

T1 sequence (Q12809 whole entry): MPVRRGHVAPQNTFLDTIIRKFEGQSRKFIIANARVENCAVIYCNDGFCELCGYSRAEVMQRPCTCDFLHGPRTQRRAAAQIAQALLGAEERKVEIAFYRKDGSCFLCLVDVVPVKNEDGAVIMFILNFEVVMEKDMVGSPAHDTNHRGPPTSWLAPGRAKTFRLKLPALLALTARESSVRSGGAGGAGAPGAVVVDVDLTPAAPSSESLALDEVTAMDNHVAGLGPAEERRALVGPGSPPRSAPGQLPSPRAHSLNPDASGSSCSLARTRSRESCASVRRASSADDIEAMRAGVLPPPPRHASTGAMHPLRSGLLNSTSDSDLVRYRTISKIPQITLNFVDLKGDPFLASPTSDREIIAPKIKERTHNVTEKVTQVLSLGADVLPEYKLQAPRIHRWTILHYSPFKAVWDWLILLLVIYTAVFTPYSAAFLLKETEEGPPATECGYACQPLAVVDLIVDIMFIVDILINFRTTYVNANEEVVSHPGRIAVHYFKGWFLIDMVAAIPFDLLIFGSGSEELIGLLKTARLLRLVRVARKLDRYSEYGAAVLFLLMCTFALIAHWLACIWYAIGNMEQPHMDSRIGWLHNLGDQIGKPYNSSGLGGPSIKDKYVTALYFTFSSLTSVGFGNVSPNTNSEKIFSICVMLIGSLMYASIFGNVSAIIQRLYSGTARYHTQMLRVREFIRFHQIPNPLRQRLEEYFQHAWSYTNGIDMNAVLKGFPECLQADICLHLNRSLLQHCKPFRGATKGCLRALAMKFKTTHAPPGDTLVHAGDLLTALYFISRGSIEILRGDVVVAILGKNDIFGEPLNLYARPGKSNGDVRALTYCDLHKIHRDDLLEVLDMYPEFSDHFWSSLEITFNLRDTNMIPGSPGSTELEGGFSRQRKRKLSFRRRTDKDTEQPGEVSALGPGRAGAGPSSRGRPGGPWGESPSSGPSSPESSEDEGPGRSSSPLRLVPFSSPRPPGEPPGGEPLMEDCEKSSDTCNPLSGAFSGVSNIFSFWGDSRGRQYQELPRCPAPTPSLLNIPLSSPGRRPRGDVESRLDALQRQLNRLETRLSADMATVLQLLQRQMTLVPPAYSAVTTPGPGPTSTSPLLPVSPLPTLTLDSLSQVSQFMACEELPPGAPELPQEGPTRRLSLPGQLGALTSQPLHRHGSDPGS

In data set [1], `C[C@@H]1CCc2ncc(F)cc2[C@H]2CCCN2c2ccn3ncc(c3n2)C(=O)N1` [Formula I] registered a solubility at 24 h of 111 µg/mL. Besides, in data set [2], the “Human Hepatocyte Clearance (% ER)” value is 48 % ER. Moreover, in data set [3], the “Rat Hepatocyte Clearance (% ER)” value was 64 % ER. Also, 27 µM corresponded to half-maximal inhibition against hERG (IC50).
With `C[C@H]1CCc2ncc(F)cc2[C@H]2CCCN2c2ccn3ncc(c3n2)C(=O)N1` [formula I′], the solubility at 24 h in data set [1] stood at 43 µg/mL. For the same compound, in data set [2], the “Human Hepatocyte Clearance (% ER)” value was 74 % ER. Besides, in data set [3], the “Rat Hepatocyte Clearance (% ER)” value was 83 % ER. In addition, at hERG, the midpoint of inhibition, the IC50, lay at 9 µM.

In general, solubility refers to the dissolved amount per volume that the medium holds. The low end stands for a poorly soluble substance, the high end for a readily soluble substance. One may read the IC50 as the concentration needed to halve the response being measured. Lower therefore signals inhibition by little substance.

Source of the values: US11091486B2, “Process for the preparation of pyrazolo[1,5-a]pyrimidines and salts thereof” (Array BioPharma Inc., priority 2016, dated 2021).
